From patent US10919885B2, “Compounds and uses thereof” (Yumanity Therapeutics, Inc., priority 2018, dated 2021)

Experiments:
[1] = target: human SCD5 (Homo sapiens (Human), UniProt Q86SK9); test: Yeast growth assay, strain expressing human SCD5 as the sole desaturase (reduced growth as surrogate for SCD inhibition); format: cell-based; details: yeast with OLE1 deleted expressing human SCD5 from a plasmid; growth read as OD600 after 40 h at 30° C.; top drug concentration 33.3 μM
Procedure, shortened: (§1)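 Human SCD1 or SCD5 expressed from a plasmid in OLE1-deleted yeast as the sole desaturase. Cells washed free of Tween and fatty acids, grown with compound in SD-Ura glucose medium 40 h at 30 °C; growth measured as OD600, reduced growth taken as SCD inhibition.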

[2] = target: human SCD1 (Homo sapiens (Human), UniProt O00767); test: Yeast growth assay, strain expressing human SCD1 as the sole desaturase (reduced growth as surrogate for SCD inhibition); format: cell-based; details: yeast with OLE1 deleted expressing human SCD1 from a plasmid; growth read as OD600 after 40 h at 30° C.; top drug concentration 33.3 μM
human SCD1, sequence (O00767 whole entry): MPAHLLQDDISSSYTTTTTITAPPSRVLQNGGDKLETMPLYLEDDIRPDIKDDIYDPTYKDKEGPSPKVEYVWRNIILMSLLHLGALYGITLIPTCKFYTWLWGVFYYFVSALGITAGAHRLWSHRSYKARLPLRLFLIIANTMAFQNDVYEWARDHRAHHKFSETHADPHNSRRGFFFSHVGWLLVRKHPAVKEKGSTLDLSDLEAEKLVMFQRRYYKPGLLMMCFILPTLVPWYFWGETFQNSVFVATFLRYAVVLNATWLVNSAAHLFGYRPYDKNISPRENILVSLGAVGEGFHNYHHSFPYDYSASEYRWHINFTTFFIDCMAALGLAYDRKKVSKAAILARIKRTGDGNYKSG
Procedure, shortened: as §1

human SCD5, sequence (Q86SK9 whole entry): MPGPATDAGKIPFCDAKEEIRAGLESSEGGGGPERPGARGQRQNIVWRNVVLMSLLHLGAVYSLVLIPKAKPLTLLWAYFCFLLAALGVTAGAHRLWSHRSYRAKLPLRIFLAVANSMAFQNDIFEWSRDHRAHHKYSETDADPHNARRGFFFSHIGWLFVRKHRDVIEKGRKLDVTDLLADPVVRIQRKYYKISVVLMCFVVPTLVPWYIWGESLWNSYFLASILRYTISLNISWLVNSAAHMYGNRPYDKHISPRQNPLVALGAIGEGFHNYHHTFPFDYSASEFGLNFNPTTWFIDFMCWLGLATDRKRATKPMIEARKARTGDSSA

IC50 [1] [µM]	IC50 [2] [µM]	SMILES
> 45	> 45	O=C(c1cc(-c2ccco2)on1)N1CC2(CCCC2)C1 [Compound 245]
> 45	> 45	O=C(Nc1cnn(Cc2ccccc2)c1)c1cc(-c2cccc3cn(C4COC4)nc23)on1 [Compound 95]
> 45	> 45	O=C(c1ccncc1)N1CCN(C(=O)c2cc(-c3ccc4c(c3)OCO4)on2)CC1 [Compound 276]
> 45	> 45	O=C(Nc1cnn(CC2CCOCC2)c1)c1cc(-c2ccco2)on1 [Compound 31]
2.69	2.41	O=C(Nc1cnn(Cc2cccc(F)c2)c1)c1cc(-c2ccncc2)on1 [Compound 56, N-(1-(3-fluorobenzyl)-1H-pyrazol-4-yl)-5-(pyridin-4-yl)isoxazole-3-carboxamide]
> 45	> 45	CSCCC(c1ccccc1)n1cc(NC(=O)c2cc(-c3ccccc3)on2)cn1 (centres unmarked) [Compound 70]
> 45	> 45	O=C(NC1CCNC1)c1cc(-c2ccco2)on1 (centres unmarked) [Compound 336]
1.8	23	COc1ccc(-c2cc(C(=O)N3CC(c4ccccc4)C3)no2)nn1 [Compound 255, (5-(6-methoxypyridazin-3-yl)isoxazol-3-yl)(3-phenylazetidin-1-yl)methanone]
5.58	19	O=C(c1cc(-c2ccccc2)on1)N1CCN(c2cc(F)ccc2Cl)CC1 [Compound 297, (4-(2-chloro-5-fluorophenyl)piperazin-1-yl)(5-phenylisoxazol-3-yl)methanone]
> 45	> 45	CS(=O)(=O)CCC(c1ccccc1)n1cc(NC(=O)c2cc(-c3ccccc3)on2)cn1 (centres unmarked) [Compound 75]
> 45	30	COc1cc(C2CCCN2C(=O)c2cc(-c3ccc4c(c3)OCO4)on2)on1 (centres unmarked) [Compound 411]
> 45	> 45	CCOc1ccc(-c2cc(C(=O)N3CCC[C@H]3c3ccccc3)no2)cc1F [Compound 443]
> 45	0.59	O=C(Nc1cnn(Cc2cccc(F)c2)c1)c1cc(-c2cccnc2)on1 [Compound 55]
> 45	> 45	O=C(NC1CN(C(=O)c2cc(-c3ccccc3)on2)C1)c1ccccc1 [Compound 240]
5.16	> 45	Cn1cc2ccc(-c3cc(C(=O)N4CC(c5ccccc5)C4)no3)cc2n1 [Compound 235, (5-(2-methyl-2H-indazol-6-yl)isoxazol-3-yl)(3-phenylazetidin-1-yl)methanone]
> 45	> 45	O=C(c1cc(-c2ccc3c(c2)OCO3)on1)N1CCCC1c1ncccc1Br (centres unmarked) [Compound 447]
> 45	> 45	O=C(Nc1cnn(Cc2ccc(F)cc2)c1)c1cc(-c2ccccc2)on1 [Compound 112]
> 45	> 45	Cc1cc(C2CCCN2C(=O)c2cc(-c3ccc4c(c3)OCO4)on2)on1 (centres unmarked) [Compound 353]
> 45	> 45	C[S+]([O-])CCC(c1ccccc1)n1cc(NC(=O)c2cc(-c3ccccc3)on2)cn1 (centres unmarked) [Compound 71]
> 45	12	Cn1cccc(-c2cc(C(=O)Nc3cnn(Cc4cccc(F)c4)c3)no2)c1=O [Compound 89]
> 45	> 45	COc1ccc(-c2cc(NC(=O)[C@@H]3CCCN3c3ccccc3)on2)cc1 [Compound 445]

IC50 [1] [µM]	IC50 [2] [µM]	SMILES
8.87	> 45	O=C(c1cc(-c2ccccc2)on1)N1CC2(CC(c3ccccc3)C2)C1 [Compound 227, (6-phenyl-2-azaspiro[3.3]heptan-2-yl)-(5-phenylisoxazol-3-yl)methanone]
1	2.5	O=C(c1cc(-c2ccncn2)on1)N1CC(Cc2ccccc2)C1 [Compound 258, (3-benzylazetidin-1-yl)(5-(pyrimidin-4-yl)isoxazol-3-yl)methanone]
> 45	> 45	O=C(Nc1cnn(Cc2ccccc2)c1)c1cc(-c2c(F)cccc2F)on1 [Compound 195]
> 45	> 45	CN(C(=O)c1cc(-c2ccccc2)on1)c1cnn(Cc2cc(F)ccc2C(F)(F)F)c1 [Compound 76]
3.14	0.321	O=C(c1cc(-c2ccncn2)on1)N1CC(c2ccccc2)C1 [Compound 257, (3-phenylazetidin-1-yl)(5-(pyrimidin-4-yl)isoxazol-3-yl)methanone]
> 45	> 45	O=C(NC1CCN(c2ccccc2)CC1)c1cc(-c2ccco2)on1 [Compound 286]
> 45	> 45	O=C(c1cc(-c2ccc3c(c2)OCO3)on1)N1CCCc2ccccc21 [Compound 261]
5	> 45	O=C(c1cc(-c2cnccn2)on1)N1CC(c2ccccc2)C1 [Compound 259, (3-phenylazetidin-1-yl)(5-(pyrazin-2-yl)isoxazol-3-yl)methanone]
> 45	> 45	N#Cc1ccccc1C1CCCN1C(=O)c1cc(-c2ccc3c(c2)OCO3)on1 (centres unmarked) [Compound 398]
> 45	> 45	CN1CCC(C2CCCN2C(=O)c2cc(-c3ccc4c(c3)OCO4)on2)CC1 (centres unmarked) [Compound 424]
> 45	> 45	O=C(Nc1cnn(Cc2ccccc2)c1)c1cc(-c2ccc(F)cc2F)on1 [Compound 157]
> 45	> 45	N#Cc1ccc(F)cc1Cn1cc(NC(=O)c2cc(-c3ccccc3)on2)cn1 [Compound 88]
> 45	> 45	COc1ccc(-c2cc(C(=O)N3CCCC3c3ccc(OC)cc3)no2)cc1 (centres unmarked) [Compound 376]
> 45	4.62	N#Cc1cccc(-c2cc(C(=O)Nc3cnn(Cc4ccccc4)c3)no2)c1 [Compound 127]
1.5	1.6	O=C(c1cc(-c2ccc(F)cn2)on1)N1CC(c2ccccc2)C1 [Compound 243, (5-(5-fluoropyridin-2-yl)isoxazol-3-yl)(3-phenylazetidin-1-yl)methanone]
6.42	> 45	O=C(Nc1cnn(CCCC(F)(F)F)c1)c1cc(-c2ccco2)on1 [Compound 34, 5-(2-furyl)-N-[1-(4,4,4-trifluorobutyl)pyrazol-4-yl]isoxazole-3-carboxamide]
> 45	> 45	COc1ccc(Cn2cc(NC(=O)c3cc(-c4ccccc4)on3)cn2)cc1 [Compound 109]
> 45	> 45	N#Cc1nn(Cc2ccccc2)cc1NC(=O)c1cc(-c2ccccc2)on1 [Compound 68]
> 45	> 45	O=C(Nc1cnn(Cc2ccccc2)c1)c1cc(-c2ccc(F)cn2)on1 [Compound 137]
> 45	> 45	NC(=O)c1cc(C(=O)Nc2cnn(Cc3cccc(F)c3)c2)no1 [Compound 162]
1.92	0.866	O=C(c1cc(-c2ccc3c(c2)OCO3)on1)N1CC(c2cccc(F)c2)C1 [Compound 239, (5-(benzo[d][1,3]dioxol-5-yl)isoxazol-3-yl)(3-(3-fluorophenyl)azetidin-1-yl)methanone]

SMILES	IC50 [1] [µM]	IC50 [2] [µM]
O=C(Nc1cnn(Cc2cccc(F)c2)c1)c1cc(-c2ccns2)on1 [Compound 81, N-(1-(3-fluorobenzyl)-1H-pyrazol-4-yl)-5-(isothiazol-5-yl)isoxazole-3-carboxamide]	1.6	0.232
